Measured values taken from patent US8080565B2, “Substituted 4-amino-benzylpiperidine compounds” (Theravance, Inc., priority 2003, dated 2011).

Experiments:
[1] = molecular target: T1, hM2 muscarinic receptor subtype (Homo sapiens, UniProt P08172); assay: Radioligand binding assay ([3H]NMS displacement), hM2; conditions: [3H]NMS at 1 nM; membranes of CHO cells expressing hM2
T1 construct: expressed in transfected cells; membrane preparation
T1 sequence (P08172 1-466): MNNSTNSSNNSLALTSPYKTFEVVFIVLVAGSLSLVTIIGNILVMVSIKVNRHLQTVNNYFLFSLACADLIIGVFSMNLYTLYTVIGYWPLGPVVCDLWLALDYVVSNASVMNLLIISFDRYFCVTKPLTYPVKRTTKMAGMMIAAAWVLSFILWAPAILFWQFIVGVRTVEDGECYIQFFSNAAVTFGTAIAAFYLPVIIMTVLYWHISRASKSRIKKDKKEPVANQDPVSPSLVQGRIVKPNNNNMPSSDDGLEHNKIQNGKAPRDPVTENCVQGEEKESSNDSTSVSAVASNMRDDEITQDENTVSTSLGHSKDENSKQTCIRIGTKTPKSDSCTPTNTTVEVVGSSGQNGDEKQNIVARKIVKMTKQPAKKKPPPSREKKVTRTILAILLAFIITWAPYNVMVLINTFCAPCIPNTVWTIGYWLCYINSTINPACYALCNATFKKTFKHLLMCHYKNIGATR
Protocol: (§1) A. Membrane Preparation from Cells Expressing hM1, hM2, hM3 and hM4 Muscarnic Receptor Subtypes
(§2) CHO (Chinese hamster ovary) cell lines stably expressing cloned human hM1, hM2, hM3 and hM4 muscarinic receptor subtypes, respectively, were grown to near confluency in medium consisting of HAM's F-12 supplemented with 10% FBS (Fetal Bovine Serum) and 250 μg/mL Geneticin. The cells were grown in a 5% CO2, 37° C. incubator and lifted with dPBS+2 mM EDTA. Cells were collected by 5 minute centrifugation at 650×g, and cell pellets were either stored frozen at −80° C. or membranes were prepared immediately. […] Protein concentration of the membrane suspension was determined by the method of Lowry, O. et al., (1951) Journal of Biochemistry: 193, 265. […]
(§3) Radioligand binding assays were performed in 96-well microtiter plates in a total assay volume of 100 μL. […] Filter plates were rinsed three times with wash buffer (10 mM HEPES) to remove unbound radioactivity. […] The plates were then counted in a PerkinElmer Topcount liquid scintillation counter (PerkinElmer Inc., Wellesley, Mass.). Binding data were analyzed by nonlinear regression analysis with the GraphPad Prism Software package (GraphPad Software, Inc., San Diego, Calif.) using the one-site competition model. […]

[2] = molecular target: T2, hM2 receptor (Homo sapiens, UniProt P08172); assay: Blockade of agonist-mediated GTPγ[35S] binding; assay type: biochemical; conditions: CHO-K1 cell membranes expressing hM2; carbachol at EC90
T2 construct: expressed in transfected cells; membrane preparation
T2 sequence (P08172 1-466): T1 sequence (P08172 1-466)
Protocol: A. Blockade of Agonist-Mediated GTPγ[^35S] Binding
In this assay, the functional potency of a test compound was determined by measuring the ability of the test compound to block carbachol-stimulated GTPγ[^35S] binding in CHO-K1 cells expressing the hM2 receptor.
CHO-K1 cells stably expressing the hM2 muscarinic receptor were grown in medium consisting of Hams F-12 media supplemented with 10% Fetal Bovine Serum and 500 μg/ml of Geneticin (G-418). Cells were incubated in a 5% CO2, humidified incubator at 37° C. Cells were grown to confluence and harvested with dPBS+2 mM EDTA and pelleted by centrifugation at 250×g for 10 minutes.
Cells from the centrifuged pellets were resuspended in homogenization buffer (10 mM HEPES, 10 mM EDTA, pH 7 at 4° C.). […]
To determine the ability of a test compound to inhibit carbachol-stimulated GTPγ[^35S] binding, the following was added to each well of 96 well plates: 25 μL of assay buffer with GTPγ[^35S] and GDP, 25 μL of diluted test compound (prepared as described above), and 25 μL CHO cell membranes expressing the hM2 receptor. […] After the pre-incubation period, 25 μL of carbachol at the final concentration of its EC90 value determined earlier in the day was added to each plate. […]
Test compound potency (IC50) was determined using iterative curve fitting (GraphPad Prism 3.0 software; single site competition curve). […]

[3] = molecular target: T3, hM3 muscarinic receptor subtype (Homo sapiens, UniProt P20309); assay: Radioligand binding assay ([3H]NMS displacement), hM3; conditions: ratio of Ki values
T3 construct: expressed in transfected cells; membrane preparation
Protocol: as §1, §2, §3

[4] = test system: oxotremorine-induced salivation; assay: In vivo rat salivation assay; conditions: for ID50 bladder/salivation selectivity ratio: comparison of ID50 values of rat bladder assay and rat salivation assay
Protocol: Female Sprague-Dawley rats weighing 200 to 300 g were anesthetized with urethane (1.5 g/kg, s.c., Sigma, St. Louis, Mo.), with a supplement of 0.25 g/kg, s.c. urethane as needed. Urethane was administered at a concentration of 0.25 g/mL.
Rats were placed on a heated blanket on their dorsal side in an inclined position (20° angle) position (head down). A swab was placed in the rat's mouth. The test compound or vehicle was administered intravenously via the tail vein. After 5 min., oxotremorine (1.0 mg/kg) was administered subcutaneously. The swab was discarded and replaced by a pre-weighed swab. Saliva was then collected for 10 min. and then the swab was removed and re-weighed to determine the output of saliva. Dose-response curves were fitted with a four parameter logistic equation to obtain estimates of ID50 (dose required to produce 50% of the maximal response).
By comparing the ID50 values determined in the rat bladder assay and rat salivation assay, the in vivo bladder/salivation selectivity ratio was calculated for the compounds tested.

[5] = test system: volume-induced bladder contraction amplitude (VIBCAmp); assay: In vivo rat bladder assay; conditions: anesthetized female Sprague-Dawley rats; intravenous; normalized to atropine response
Protocol: Female Sprague-Dawley rats (Harlan, Indianapolis, Ind.) weighing 200 to 300 g were anesthetized with urethane (1.5 g/kg, s.c., Sigma, St. Louis, Mo.), with a supplement of 0.25 g/kg, s.c. urethane as needed. Urethane was administered at a concentration of 0.25 g/mL.
Rats were prepared for surgery by shaving the neck and abdomen and cleansing with ethanol wipes. First, an incision was made on the ventral surface. An intravenous catheter was placed by isolating and ligating the femoral vein. […]
Thereafter, an intravenous dose of the test compound was administered and changes in VIBCAmp were recorded for 15 minutes. Atropine (0.1 mg/kg) was then administered intravenously (1 mL/kg) as a positive control and VIBCAmp and data was recorded for an additional 15 minutes. […]
Alternatively, after the vehicle, increasing cumulative intravenous doses of the test compound were administered at 15 minute intervals (1 mL/kg) and changes in VIBCAmp were recorded for 15 minutes. […]
The average VIBCAmp during the 5-15 minute period after test compound and atropine was determined and subtracted from the average VIBCAmp during the 5-15 minute post-vehicle period to obtain the test compound or atropine-induced change in VIBCAmp. […]

T3 sequence (P20309 whole entry): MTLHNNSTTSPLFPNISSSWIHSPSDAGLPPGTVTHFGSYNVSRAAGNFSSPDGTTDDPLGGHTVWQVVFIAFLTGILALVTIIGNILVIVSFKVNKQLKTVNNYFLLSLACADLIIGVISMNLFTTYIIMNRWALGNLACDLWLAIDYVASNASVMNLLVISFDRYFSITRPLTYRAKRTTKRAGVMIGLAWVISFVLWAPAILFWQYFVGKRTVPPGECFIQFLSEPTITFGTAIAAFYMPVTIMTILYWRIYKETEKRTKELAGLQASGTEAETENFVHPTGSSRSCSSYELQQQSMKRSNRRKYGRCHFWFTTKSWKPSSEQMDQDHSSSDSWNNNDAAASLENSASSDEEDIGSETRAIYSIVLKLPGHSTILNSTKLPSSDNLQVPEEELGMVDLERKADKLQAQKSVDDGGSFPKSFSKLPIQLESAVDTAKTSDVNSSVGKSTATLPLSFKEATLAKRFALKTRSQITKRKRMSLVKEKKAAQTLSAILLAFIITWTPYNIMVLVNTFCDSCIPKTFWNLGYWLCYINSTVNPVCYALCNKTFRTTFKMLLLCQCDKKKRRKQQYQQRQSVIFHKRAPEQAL

Question: With `COc1cccc(OC)c1CN1CCC(N(C)CCCCOCCCCN2CC[C@@H](C(C(N)=O)(c3ccccc3)c3ccccc3)C2)CC1` [Example 4] as the compound, how does the Ki [1] read?
Answer: < 20 nM

Question: And the Ki [2]?
Answer: < 10 nM

Question: And the hM3/hM2 ratio [3]?
Answer: greater than or equal to 5

Question: And the “ID50 (rat salivation assay)” value ([4]; anesthetized female Sprague-Dawley rats, intravenous, oxotremorine 1.0 mg/kg s.c.)?
Answer: greater than or equal to 1 mg/kg

Question: And the “ID50 bladder/salivation selectivity ratio” value [4]?
Answer: greater than 10

Question: What about the “ID50 (rat bladder assay)” value [5] of the same compound?
Answer: less than or equal to 0.1 mg/kg

Question: For `CCN(CC)CC#CCOC(=O)C(O)(c1ccccc1)C1CCCCC1` (centres unmarked) [oxybutynin, reference compound], which “ID50 bladder/salivation selectivity ratio” value [4] is on record?
Answer: about 1.4

Question: How did the “ID50 bladder/salivation selectivity ratio” value [4] turn out when `Cc1ccc(O)c([C@H](CCN(C(C)C)C(C)C)c2ccccc2)c1` [tolterodine, reference compound] was run?
Answer: ~4.8
